# Test results taken from patent US12065433B2, “Positive allosteric modulators of the muscarinic acetylcholine receptor M1” (Vanderbilt University, priority 2018, dated 2024).
# Biological target: T1, human mAChR M1 (Homo sapiens, UniProt P11229)
# T1 sequence (P11229 1-460): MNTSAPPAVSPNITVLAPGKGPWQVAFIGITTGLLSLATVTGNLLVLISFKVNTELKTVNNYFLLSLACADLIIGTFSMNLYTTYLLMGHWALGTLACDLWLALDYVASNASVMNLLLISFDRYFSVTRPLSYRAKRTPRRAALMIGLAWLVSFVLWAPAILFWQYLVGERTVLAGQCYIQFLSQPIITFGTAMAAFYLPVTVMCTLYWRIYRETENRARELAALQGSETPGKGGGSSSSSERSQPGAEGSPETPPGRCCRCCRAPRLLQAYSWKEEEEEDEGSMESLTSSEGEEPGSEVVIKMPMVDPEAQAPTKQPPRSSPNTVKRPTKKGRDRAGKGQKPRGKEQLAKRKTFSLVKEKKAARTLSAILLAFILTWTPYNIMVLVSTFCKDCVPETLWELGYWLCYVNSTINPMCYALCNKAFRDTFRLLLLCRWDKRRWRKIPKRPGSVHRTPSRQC
# Experiment: mAChR M1 cell-based functional assay (calcium mobilization, PAM mode)
# Conditions: CHO-K1 cells stably expressing hM1, calcium flux (Fluo-4); for Emax: potentiation of EC20 acetylcholine response; for EC50: concentration-dependent increase in the EC20 acetylcholine response
# Excerpt: Chinese hamster ovary (CHO-K1) cells stably expressing rat (r)M1 were purchased from the American Type Culture Collection and cultured according to their indicated protocol. CHO cells stably expressing human (h)M2, hM3, and hM5 were described previously (Levey, et al., 1991); hM1 and hM4 cDNAs were purchased from Missouri S&T cDNA Resource; rM4 cDNA was provided by T. I. Bonner (National Institutes of Health, Bethesda, MD). rM2 and rM3 were cloned from a rat brain cDNA library and sequence verified. hM1, rM2, rM3, hM4, and rM4 cDNAs were used to stably transfect CHO-K1 cells purchased from the American Type Culture Collection using Lipofectamine2000. To make stable rM2, hM2, rM3, hM4, and rM4 cell lines for use in calcium mobilization assays, these cells also were stably transfected with a chimeric G-protein (Gqi5) (provided by B. R. Conklin, University of California, San Francisco) using Lipofectamine 2000. rM1, hM1, rM3, hM3, rM5, and hM5 cells were grown in Ham's F-12 medium containing 10% heat-inactivated fetal bovine serum (FBS), 20 mM HEPES, and 50 μg/mL G418 sulfate. rM2-Gqi5, hM2-Gqi5, and hM4-Gqi5 cells were grown in the same medium also containing 500 μg/mL Hygromycin B. Stable rM4-Gqi5 cells were grown in DMEM containing 10% heat-inactivated FBS, 20 mM HEPES, 400 μg/mL G418 sulfate, and 500 μg/mL Hygromycin B.
# For high throughput measurement of agonist-evoked increases in intracellular calcium, CHO-K1 cells stably expressing muscarinic receptors were plated in growth medium lacking G418 and hygromycin at 15,000 cells/20 μL/well in Greiner 384-well black-walled, tissue culture (TC)-treated, clear-bottom plates (VWR). Cells were incubated overnight at 37° C. and 5% CO2. The next day, cells were washed using an ELX 405 (BioTek) with four washes (80 μL) of assay buffer then aspirated to 20 μL. Next, 20 μL of 16 μM Fluo-4/acetoxymethyl ester (Invitrogen, Carlsbad, CA) prepared as a 2.3 mM stock in DMSO and mixed in a 1:1 ratio with 10% (w/v) Pluronic F-127 and diluted in assay buffer was added to the wells and the cell plates were incubated for 50 min at 37° C. and 5% CO2. Dye was removed by washing with the ELX 405 (four […], washes of assay buffer) then aspirated to 20 μL. Compound master plates were formatted in an 11 point CRC format (1:3 dilutions) in 100% DMSO with a starting concentration of 10 mM using the BRAVO liquid handler (Agilent). Test compound CRCs were then transferred to daughter plates (240 nL) using the Echo acoustic plate reformatter (Labcyte, Sunnyvale, CA) and then diluted into assay buffer (40 μL) to a 2× stock using a Thermo Fisher Combi (Thermo Fisher Scientific, Waltham, MA).
# Calcium flux was measured using the Functional Drug Screening System (FDSS) 6000 (Hamamatsu Corporation, Tokyo, Japan) as an increase in the fluorescent static ratio. Compounds were applied to cells (20 μL, 2×) using the automated system of the FDSS 6000 at 4 s into the 300 s protocol and the data were collected at 1 Hz. At 144 s into the 300 s protocol, 10 μL of an EC20 concentration of the muscarinic receptor agonist acetylcholine was added (5×), followed by the addition of 12 μL an EC80 concentration of acetylcholine at the 230 s time point (5×). Agonist activity was analyzed as a concentration-dependent increase in calcium mobilization upon compound addition. Emax values for agonist activity are expressed relative to the maximum for acetylcholine. Positive allosteric modulator activity was analyzed as a concentration-dependent increase in the EC20 acetylcholine response. Antagonist activity was analyzed as a concentration-dependent decrease in the EC80 acetylcholine response. Concentration-response curves were generated using a four-parameter logistical equation in XLfit curve fitting software (IDBS, Bridgewater, NJ) for Excel (Microsoft, Redmond, WA) or Prism (GraphPad Software, Inc., San Diego, CA). […]
Emax,EC50,SMILES
57%,,"Cn1ccc(-c2ccc(Cc3cc4c(c(C(=O)NC5CC6(COC6)C5)c3)OCO4)cn2)n1 [Compound 14, 6-[[6-(1-methylpyrazol-3-yl)-3-pyridyl]methyl]-N-(2-oxaspiro[3.3]heptan-6-yl)-1,3-benzodioxole-4-carboxamide]"
75%,1.42 µM,"Cn1ccc(-c2ccc(Cc3cc4c(c(C(=O)N[C@H]5CCOC[C@@H]5O)c3)OCO4)cn2)n1 [Compound 9, N-[(3R,4S)-3-hydroxytetrahydropyran-4-yl]-6-[[6-(1-methylpyrazol-3-yl)-3-pyridyl]methyl]-1,3-benzodioxole-4-carboxamide]"
74%,6.44 µM,"Cn1ccc(-c2ccc(Cc3cc4c(c(C(=O)N[C@H]5CCC[C@@H]5O)c3)OCO4)cn2)n1 [Compound 12, N-[(1S,2S)-2-hydroxycyclopentyl]-6-[[6-(1-methylpyrazol-3-yl)-3-pyridyl]methyl]-1,3-benzodioxole-4-carboxamide]"
